Source: patent publication US7700786B2, “Pyrazole derivative, intermediate therefor, processes for producing these, and herbicide containing these as active ingredient” (Sagami Chemical Research Center, priority 2001, dated 2010)

Assays:
[1] = tested on: annual broadleaf weeds such as Lindernia procumbens, Rotala indica and Elatine triandra; assay: Herbicidal efficacy test by pre-emergence treatment under submergence condition; assay type: in vivo; details: 15th day after treatment, ratings of 1 to 5
Description: (§2) A 1/10,000-are pot was filled with paddy field soil, and, after plowing, seeds of Echinochloa oryzicola, Cyperus difformis, Monochoria vaginalis, Scirpus juncoides, Eleocharis acicularis and other annual broadleaf weeds such as Lindernia procumbens, Rotala indica and Elatine triandra were sown. Rice (oryza sativa) seedlings (cultiver “Koshihikari”) at a 2.5-leaf stage were transplanted and kept under a submergence condition. After one day, the wettable powder or emulsifiable concentrate of the compound of the present invention, prepared according to Preparation Example, was diluted and dropped on a water surface at a predetermined dose.

Chenopodium album = assay: Herbicidal efficacy test by foliar treatment after germination under upland field condition; assay type: in vivo; details: dose 1 kg/ha, rated 1 to 5 on the 14th day after treatment; note: key: 1 shows no influence; 5 shows complete die
Description: (§1) A vat having an area of 5×10 cm^2 and a depth of 5 cm was filled with upland field soil, and seeds of Chenopodium album, Echinochloa crus-galli, Amaranthus viridis and Abutilon theophrasti were sown thereon and covered with soil by a depth of 0.5 cm. Water was sprayed as required to grow them for 14 days.

Echinochloa crus-galli = assay: as above; assay type: in vivo; details: dose 1 kg/ha, rated 1 to 5 on the 14th day after treatment
Description: as §1

Amaranthus viridis = assay: as above; assay type: in vivo; details: dose 1 kg/ha, rated 1 to 5 on the 14th day after treatment; note: key: 1 shows no influence; 5 shows complete die
Description: as §1

Eleocharis acicularis = assay: Herbicidal efficacy test by pre-emergence treatment under submergence condition; assay type: in vivo; details: 15th day after treatment, ratings of 1 to 5; note: key: 1 shows no influence; 5 shows complete die
Description: as §2

Cyperus difformis = assay: as above; assay type: in vivo; details: 15th day after treatment, ratings of 1 to 5; note: key: 1 shows no influence; 5 shows complete die
Description: as §2

Abutilon theophrasti = assay: Herbicidal efficacy test by foliar treatment after germination under upland field condition; assay type: in vivo; details: Dc: Digitaria ciliaris (table footnote; method names Abutilon theophrasti), dose 1 kg/ha, rated 1 to 5 on the 14th day after treatment
Scirpus juncoides = assay: Herbicidal efficacy test by pre-emergence treatment under submergence condition; assay type: in vivo; details: 15th day after treatment, ratings of 1 to 5
Description: as §2

Monochoria vaginalis = assay: as above; assay type: in vivo; details: 15th day after treatment, ratings of 1 to 5; note: key: 1 shows no influence; 5 shows complete die
Description: as §2

Echinochloa oryzicola = assay: as above; assay type: in vivo; details: 15th day after treatment, ratings of 1 to 5
Description: as §2

Row | melting point | Structure (SMILES) | Herbicidal efficacy Blw ([1]; dose 0.5 kg/ha) | Herbicidal efficacy Blw ([1]; dose 1 kg/ha) | Herbicidal activity Ca (Chenopodium album) | Herbicidal activity Ec (Echinochloa crus-galli) | Herbicidal activity Av (Amaranthus viridis) | Herbicidal efficacy Ea (Eleocharis acicularis; dose 0.5 kg/ha) | Herbicidal efficacy Ea (Eleocharis acicularis; dose 1 kg/ha) | Herbicidal efficacy Cd (Cyperus difformis; dose 0.5 kg/ha) | Herbicidal efficacy Cd (Cyperus difformis; dose 1 kg/ha) | Herbicidal activity Dc (Abutilon theophrasti) | Herbicidal efficacy Sj (Scirpus juncoides; dose 0.5 kg/ha) | Herbicidal efficacy Sj (Scirpus juncoides; dose 1 kg/ha) | Herbicidal efficacy Mv (Monochoria vaginalis; dose 0.5 kg/ha) | Herbicidal efficacy Mv (Monochoria vaginalis; dose 1 kg/ha) | Herbicidal efficacy Eo (Echinochloa oryzicola; dose 0.5 kg/ha) | Herbicidal efficacy Eo (Echinochloa oryzicola; dose 1 kg/ha)
1 |  | Cc1cc(Oc2c(Cl)cc(C(F)(F)F)cc2Cl)nn1C(=O)NC(C)C [Compound 3-89] | 5 | 5 | 5 | 5 | 5 | 5 | 5 | 5 | 5 | 5 | 5 | 5 | 5 | 5 | 5 | 5
2 |  | CCNC(=O)n1nc(Oc2ncc(C(F)(F)F)cc2Cl)cc1C [Compound 4-16, N-ethyl-3-(3-chloro-5-trifluoromethylpyridin-2-yloxy)-5-methylpyrazole-1-carboxamide] | 5 | 5 |  |  |  | 5 | 5 | 5 | 5 |  | 4.8 | 5 | 5 | 5 | 5 | 5
3 |  | CCONC(=O)n1nc(Oc2c(Cl)cc(C(F)(F)F)cc2Cl)cc1C [Compound 3-158] | 5 | 5 | 5 | 5 | 5 | 5 | 5 | 5 | 5 | 5 | 5 | 5 | 5 | 5 | 5 | 5
4 |  | CCNC(=O)n1nc(Oc2ccc(C(F)(F)F)cc2[N+](=O)[O-])cc1C [Compound 3-67] |  |  | 5 | 4.9 | 5 |  |  |  |  | 5 |  |  |  |  |  | 
5 |  | CCC(C)NC(=O)n1nc(Oc2ncc(C(F)(F)F)cc2Cl)cc1C (stereo not shown) [Compound 4-30, N-s-butyl-3-(3-chloro-5-trifluoromethylpyridin-2-yloxy)-5-methylpyrazole-1-carboxamide] |  |  | 5 | 5 | 5 |  |  |  |  | 5 |  |  |  |  |  | 
6 |  | CNC(=O)n1nc(Oc2ncc(C(F)(F)F)cc2Cl)cc1C [Compound 4-6, N-methyl-3-(3-chloro-5-trifluoromethylpyridin-2-yloxy)-5-methylpyrazole-1-carboxamide] | 5 | 5 |  |  |  | 5 | 5 | 5 | 5 |  | 4.6 | 5 | 5 | 5 | 4.8 | 5
7 |  | Cc1cc(Oc2c(Cl)cc(C(F)(F)F)cc2Cl)nn1C(=O)NCCCl [Compound 3-143] | 5 | 5 |  |  |  | 5 | 5 | 5 | 5 |  | 4 | 5 | 5 | 5 | 5 | 5
8 |  | CCCNC(=O)n1nc(Oc2ncc(C(F)(F)F)cc2Cl)cc1C [Compound 4-23, N-propyl-3-(3-chloro-5-trifluoromethylpyridin-2-yloxy)-5-methylpyrazole-1-carboxamide] | 4.8 | 5 |  |  |  | 5 | 5 | 5 | 5 |  | 4.9 | 5 | 5 | 5 | 5 | 5
9 |  | CCCNC(=O)n1nc(Oc2ccc(C(F)(F)F)cc2[N+](=O)[O-])cc1C [Compound 3-82] |  |  | 5 | 3.8 | 5 |  |  |  |  | 5 |  |  |  |  |  | 
10 |  | CCNC(=S)n1nc(Oc2ncc(C(F)(F)F)cc2Cl)cc1C [Compound 4-17, N-ethyl-3-(3-chloro-5-trifluoromethylpyridin-2-yloxy)-5-methylpyrazole-1-carbothioamide] | 4.8 | 5 |  |  |  | 5 | 5 | 5 | 5 |  | 4.5 | 4.8 | 5 | 5 | 5 | 5
11 | 117 to 119 °C | CNC(=O)n1nc(Oc2ccc(C(F)(F)F)cc2[N+](=O)[O-])c(C)c1C |  |  |  |  |  |  |  |  |  |  |  |  |  |  |  | 
12 | 98 to 99 °C | CCNC(=O)n1nc(Oc2c(Cl)cc(C(F)(F)F)cc2[N+](=O)[O-])cc1C [Example 126, N-ethyl-3-(2-chloro-6-nitro-4-trifluoromethylphenyloxy)-5-methylpyrazole-1-carboxamide] |  |  |  |  |  |  |  |  |  |  |  |  |  |  |  | 
13 | 123 to 125 °C | CCNC(=O)n1nc(Oc2ncc(C(F)(F)F)cc2Cl)c(Br)c1C [Compound 4-78, N-ethyl-4-bromo-3-(3-chloro-5-trifluoromethylpyridin-2-yloxy)-5-methylpyrazole-1-carboxamide] |  |  |  |  |  |  |  |  |  |  |  |  |  |  |  | 
14 | 89 to 91 °C | CCCNC(=O)n1nc(Oc2c(Cl)cc(C(F)(F)F)cc2Cl)cc1C(Cl)(Cl)Cl [Example 250, N-propyl-3-(2,6-dichloro-4-trifluoromethylphenyloxy)-5-trichloromethylpyrazole-1-carboxamide] |  |  |  |  |  |  |  |  |  |  |  |  |  |  |  | 
15 | 103 to 105 °C | CCNC(=O)n1nc(Oc2ccc(C#N)cc2C(F)(F)F)cc1C [Example 95, N-ethyl-3-(4-cyano-2-trifluoromethylphenyloxy)-5-methylpyrazole-1-carboxamide] |  |  |  |  |  |  |  |  |  |  |  |  |  |  |  | 
